Test results published in article PMC6310865 (Proceedings of the National Academy of Sciences of the …, 2018).

System: CD4+ T cells
Type: cell-based, human
Settings: all cases versus controls; […]

Row | Substance | Tetramer-positive CD4+ T cells in T1N cases versus DQ0602 controls
1 | NP17–31: nucleoprotein epitope, PR8 specific (GERQNATEIRASVGK) | significant overabundance
2 | NP261–275: nucleoprotein epitope shared between A/California/07/2009 and PR8 (RSALILRGSVAHKSC; UniProt P03466 261-275, looked up, fragment) | little to no significant differences
